In general, Kd refers to the equilibrium constant for the complex coming apart.

The results in this text go back to patent US20220041691A1, “METHODS FOR DIAGNOSING OR TREATING POST-TRAUMATIC STRESS DISORDER, AND COMPOSITIONS THEREFOR” (Centre for Addiction and Mental Health, priority 2018, published 2022).

Residue numbers refer to the chain shown, from its start.

Test [1] deals with GR phosphorylation at S211. Put plainly: Western blot of GR phosphorylation at S211 in brain lysate of fear-conditioned mice. The class given is in vivo, mouse. The following applies: brain lysate of fear-conditioned mice injected with TAT or TAT-GRpep; p<0.05, n=3. From the text:
To further investigate these findings, surface plasmon resonance (SPR) was used to estimate association and dissociation rates between GR and FKBP51. […] Thus, GR S211 phosphorylation seems to reduce GR affinity for FKBP51. Conversely, disruption of the GR-FKBP51 complex with TAT-GRpep could increase GR S211 phosphorylation, which is what was observed when comparing fear-conditioned mice treated with TAT-GRpep vs. TAT control or no treatment (FIG. 5 I-J).
Co-immunoprecipitation and Western blot analyses were performed as previously described.^24, 25, 26 For co-immunoprecipitation, 500˜1000 μg solubilized protein was extracted from whole mouse brain and incubated with primary antibody or control IgG (2˜4 μg) for 4 hrs at 4° C., followed by the addition of 25 μl protein A/G plus agarose (Santa Cruz Biotechnology) for 12 hrs. Pellets were washed, boiled for 5 min in SDS sample buffer and subjected to SDS-PAGE. 50˜100 μg of total protein extract was used as control in each experiment. After transfer of proteins into nitrocellulose, membranes were Western blotted with the primary antibodies. The intensity of protein level was quantified by densitometry (software: ImageLab, Bio-Rad). […]
In general terms: A western blot detects proteins with antibodies after separation by electrophoresis.

In test [2] the test system is GR and FKBP52 colocalization in primary neurons. Put plainly: Immunocytochemistry of GR and FKBP52 in primary mouse neurons. Format: cell-based. The following applies: primary neurons 8 DIV, 10 μM, 45 min. The protocol:
Cortical tissues from embryonic day (E14) mouse brains were dissected out, incubated with 0.25% trypsin for 15 min at 37° C., and dissociated by mechanical trituration. Neurons were then plated at a desired density onto glass coverslips previously coated with 0.1 mg/ml poly-d-lysine, and grown in Neurobasal medium with 1× Glutamax, 1×B27, 100 U/ml penicillin and 100 μg/ml streptomycin in an incubator (37° C., 5% CO2). Either 10 μM of TAT-GRpep, 10 μM TAT-control peptide or saline were added in culture plates for 45 min in advance at 8 days in vitro (8 DIV).
Cultured neurons were fixed in 4% PFA/4% sucrose, permeabilized with 0.1M PBS containing 0.1% Triton X-100 for 10 min, and blocked for 1 hour with 1% bovine serum albumin in PBS at room temperature. They were incubated with primary antibodies overnight at 4° C. and secondary antibodies for 1 hour at room temperature. The following primary antibodies were used: anti-GR (1:200; Thermo), anti-FKBP51 (1:200; Abcam) and anti-FKBP52 (1:200; Abcam). […] DAPI was used to stain cell nuclei.

The subject of the next test is fear-conditioned mice. The test is described as follows: Cued fear conditioning, systemic (i.p.) peptide delivery. The class given is in vivo, mouse. The conditions noted are these: p<0.05. How it is done: Next, testing was performed to determine whether TAT-GRpep can block the emergence of PTSD-like fear-related behaviours when administrated systemically. Animals underwent five rounds of CS-US pairings followed by 5 days of extinction training before the expression of fear in response to the learned cue was assessed (FIG. 4A). Mice were injected with either TAT-GRpep or TAT intraperitoneally (3 nmol/g, i.p.) one hour before the test.
Furthermore, testing was performed to determine whether disrupting the GR-FKBP51 complex reduced consolidation of cued fear memory. Thus, TAT or TAT-GRpep was administered two hours after the end of fear conditioning training (FIG. 4C), before five consecutive daily extinction sessions of cue exposure without shock. […] This may therefore indicate a potential approach to both preventing and treating PTSD-like behaviour in the aftermath of trauma, for example.
Animals were first given a five-minute habituation to the apparatus (Habitest, Colbourne Instruments). Then, animals were exposed to 30 seconds of cue exposure (an in-house white light), which co-terminated with one second of foot-shock (0.5 mA). The cue exposure and foot-shock were repeated five times, intermitted by 5-minute inter-trial intervals. Following the conditioning, animals were subjected to 2-5 days of extinction before the assessment of their cued fear memory, which consisted of 15 rounds of 30-second cue exposure, with 30-second inter-trial intervals (adapted from Andero et al.).^48
The expression of fear (in a different context from training) was assessed 24 hours after the last extinction training. The assessment consisted of a three-minute period of habituation (absence of CS) and a sequent three-minute trial of conditioned cues. The duration of freezing behaviors was recorded by a blinded experimenter. Peptide treatment was either administered 2 hours after the conditioning or 30 minutes before the behavioral assessment.

The target in a further test is T1, GR-FKBP51 complex (Mus musculus, UniProt Q64378).
T1 construct: from tissue; host or cells: C57Bl/6 mouse brain (acute slices; whole-brain lysate) and blood lymphocytes
T1 sequence (Q64378 1-456): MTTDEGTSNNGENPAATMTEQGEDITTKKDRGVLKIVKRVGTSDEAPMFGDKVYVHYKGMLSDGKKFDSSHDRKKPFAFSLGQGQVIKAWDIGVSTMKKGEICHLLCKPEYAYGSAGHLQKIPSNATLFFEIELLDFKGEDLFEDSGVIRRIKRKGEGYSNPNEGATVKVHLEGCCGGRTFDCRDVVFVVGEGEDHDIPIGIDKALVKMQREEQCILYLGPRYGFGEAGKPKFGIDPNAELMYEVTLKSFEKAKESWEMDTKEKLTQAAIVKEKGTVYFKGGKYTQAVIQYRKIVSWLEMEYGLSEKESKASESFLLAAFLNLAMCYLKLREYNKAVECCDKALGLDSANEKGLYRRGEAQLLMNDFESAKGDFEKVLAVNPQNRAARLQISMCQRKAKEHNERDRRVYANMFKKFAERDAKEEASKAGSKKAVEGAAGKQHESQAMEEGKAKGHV
The test is described as follows: Co-immunoprecipitation of GR-FKBP51 complex in brain and lymphocyte lysate of fear-conditioned mice injected with peptide. The following applies: brain lysate of fear-conditioned mice injected with TAT or TAT-GRpep; p<0.05, n=3. Format: in vivo. The protocol: Furthermore, testing was performed to determine whether disrupting the GR-FKBP51 complex reduced consolidation of cued fear memory. Thus, TAT or TAT-GRpep was administered two hours after the end of fear conditioning training (FIG. 4C), before five consecutive daily extinction sessions of cue exposure without shock.
Co-immunoprecipitation and Western blot analyses were performed as previously described.^24, 25, 26 For co-immunoprecipitation, 500˜1000 μg solubilized protein was extracted from whole mouse brain and incubated with primary antibody or control IgG (2˜4 μg) for 4 hrs at 4° C., followed by the addition of 25 μl protein A/G plus agarose (Santa Cruz Biotechnology) for 12 hrs. Pellets were washed, boiled for 5 min in SDS sample buffer and subjected to SDS-PAGE. 50˜100 μg of total protein extract was used as control in each experiment. After transfer of proteins into nitrocellulose, membranes were Western blotted with the primary antibodies. The intensity of protein level was quantified by densitometry (software: ImageLab, Bio-Rad).

The target in test [3] is T2, Flag-tagged GR, wild-type (human, UniProt P04150 1-777).
T2 construct: Expressed in HEK293(T) cells; also called Flag-GR; WT-GR; not shown: Flag tag
T2 sequence: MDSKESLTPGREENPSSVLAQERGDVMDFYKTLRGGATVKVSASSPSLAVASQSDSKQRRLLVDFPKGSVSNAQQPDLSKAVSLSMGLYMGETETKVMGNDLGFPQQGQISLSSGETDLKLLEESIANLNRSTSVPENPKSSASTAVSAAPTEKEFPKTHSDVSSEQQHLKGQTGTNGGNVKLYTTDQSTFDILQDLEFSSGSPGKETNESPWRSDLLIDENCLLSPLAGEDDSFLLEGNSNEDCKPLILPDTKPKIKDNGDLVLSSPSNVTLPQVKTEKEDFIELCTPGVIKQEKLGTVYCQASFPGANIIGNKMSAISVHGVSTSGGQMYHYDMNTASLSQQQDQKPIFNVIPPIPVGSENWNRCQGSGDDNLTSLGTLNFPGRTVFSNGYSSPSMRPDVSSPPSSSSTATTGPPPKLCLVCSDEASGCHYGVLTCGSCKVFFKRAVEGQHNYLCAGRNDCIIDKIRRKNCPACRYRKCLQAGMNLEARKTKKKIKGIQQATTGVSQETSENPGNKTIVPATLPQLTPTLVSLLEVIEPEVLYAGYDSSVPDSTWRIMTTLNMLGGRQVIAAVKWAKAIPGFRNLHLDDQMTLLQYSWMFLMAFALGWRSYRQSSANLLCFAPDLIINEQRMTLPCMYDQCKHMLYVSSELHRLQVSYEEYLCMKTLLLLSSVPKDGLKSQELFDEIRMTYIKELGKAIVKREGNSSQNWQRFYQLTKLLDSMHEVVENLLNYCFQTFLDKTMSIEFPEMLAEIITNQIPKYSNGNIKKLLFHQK
The test is described as follows: SPR (Reichert SR7500DC, 25 C), FLAG-tagged GR captured on FLAG antibody-coated chip, GST-FKBP51_TPR injected.

The target of test [4] is T3, Flag-tagged GR S211E mutant (phosphomimetic GR mutant) (human, UniProt P04150 1-777).
T3 construct: also called S211E-GR; S211E GR; not shown: Flag tag
T3 sequence: T2 sequence with S211E
Described as above.

The target of test [5] is T4, Flag-tagged GR S211A mutant (non-phosphorylated GR mutant) (human, UniProt P04150 1-777).
T4 construct: also called S211A-GR; S211A GR; not shown: Flag tag
T4 sequence: T2 sequence with S211A
The test is described as above.

With “TAT: control peptide: cell-membrane transduction domain of the human immunodeficiency virus-type 1 TAT protein (GRKKRRQRRRPQ; Amino Acid Sequence of the Cell-Membrane Transduction Domain of HIV-Type 1 Transactivator of Transcription (TAT) Protein) [reference compound]”, the “GR phosphorylation at S211” value in test [1] was “not”. The “nuclear GR-FKBP52 colocalization” value in test [2] is on record as “almost negligible amount of GR-FKBP52 complex”. Further, the “duration of freezing with the CS” value in the test with fear-conditioned mice (3 nmol/g i.p. one hour before the test, after 5 days of extinction training, three-minute cue trial) is 64.2 ± 10.7 s. Also, the “duration of freezing with the CS (consolidation of cued fear memory)” value in the test on fear-conditioned mice (peptide administered two hours after end of fear conditioning, tested 24 hours after last of five daily extinction sessions) is 71.0 ± 3.6 s. In addition, the “GR-FKBP51 complex level in brain (co-immunoprecipitation)” value with GR-FKBP51 complex was “not”.

B1: GST-FKBP51_TPR (GST fusion of the tetratricopeptide repeat domain of FKBP51) (other)
chain: EMDTKEKLEQAAIVKEKGTVYFKGGKYMQAVIQYGKIVSWLEMEYGLSEKESKASESFLLAAFLNLAMCYLKLREYTKAVECCDKALGLDSANEKGLYRRGEAQLLMNEFESAKGDFEKVLEVNPQNKAARLQISMCQKKAKEHNERDRRIYANMFKKFAEQDAKEEANKAMGKKTSEGVTNEKGTDSQAMEEEKPEGHV
notes: also called GST-TPR; FKBP51 TPR domain; not shown: glutathione S-transferase (GST) tag; vector stated only for the GR fragments (pGEX-4T3)
For B1, the Kd turned out to be 3.31 µM in test [3], 3.9 µM in test [4] and 0.412 µM in test [5].
